Several values for one entry are separate records, joined by “and”; a condition that tells them apart may be missing. Identical values can stand only once. Inconclusive results and toxic doses are left out. Rule for the calls: active = survival T/C of 150% or more; inactive = T/C below 125% in these data.
Test system: P388 leukemia ip, CD2F1 mice, survival T/C
Test: NCI In Vivo Anticancer Drug Screen. Data for tumor model P388 Leukemia (intraperitoneal) in CD2F1 (CDF1) mice
Conditions: endpoint: median survival time, higher = longer survival
Procedure, shortened: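 Mice carrying the transplanted tumor received test compound or vehicle. Survival was recorded in each group, and the value is the treated-group measurement divided by that of the vehicle-treated control group.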

[1] = dose: 60.0 mg/kg/injection, schedule: Q01DX005 (ip), vehicle: saline with Tween-80
[2] = dose: 120.0 mg/kg/injection, schedule: Q01DX005 (ip), vehicle: saline with Tween-80
[3] = dose: 240.0 mg/kg/injection, schedule: Q01DX005 (ip), vehicle: saline with Tween-80
[4] = dose: 100.0 mg/kg/injection, schedule: Q04DX003 (ip), vehicle: saline with Tween-80
[5] = dose: 200.0 mg/kg/injection, schedule: Q04DX003 (ip), vehicle: saline with Tween-80
[6] = dose: 50.0 mg/kg/injection, schedule: Q01DX009 (ip), vehicle: saline with Tween-80
[7] = dose: 100.0 mg/kg/injection, schedule: Q01DX009 (ip), vehicle: saline with Tween-80
[8] = dose: 50.0 mg/kg/injection, schedule: Q01DX005 (ip), vehicle: saline with Tween-80
[9] = dose: 100.0 mg/kg/injection, schedule: Q01DX005 (ip), vehicle: saline with Tween-80
[10] = dose: 200.0 mg/kg/injection, schedule: Q01DX005 (ip), vehicle: saline with Tween-80
[11] = dose: 25.0 mg/kg/injection, schedule: Q01DX009 (ip), vehicle: saline with Tween-80
[12] = dose: 200.0 mg/kg/injection, schedule: Q01DX009 (ip), vehicle: saline with Tween-80
[13] = dose: 6.25 mg/kg/injection, schedule: Q01DX009 (ip), vehicle: saline with Tween-80
[14] = dose: 6.25 mg/kg/injection, schedule: Q04DX003 (ip), vehicle: saline with Tween-80
[15] = dose: 12.5 mg/kg/injection, schedule: Q01DX009 (ip), vehicle: saline with Tween-80
[16] = dose: 12.5 mg/kg/injection, schedule: Q04DX003 (ip), vehicle: saline with Tween-80
[17] = dose: 25.0 mg/kg/injection, schedule: Q04DX003 (ip), vehicle: saline with Tween-80
[18] = dose: 50.0 mg/kg/injection, schedule: Q01DX009 (ip), vehicle: Klucel (hydroxypropylcellulose) (HPC)
[19] = dose: 100.0 mg/kg/injection, schedule: Q01DX009 (ip), vehicle: Klucel (hydroxypropylcellulose) (HPC)
[20] = dose: 200.0 mg/kg/injection, schedule: Q01DX009 (ip), vehicle: Klucel (hydroxypropylcellulose) (HPC)
[21] = dose: 60.0 mg/kg/injection, schedule: Q01DX005 (ip), vehicle: Klucel (hydroxypropylcellulose) (HPC)
[22] = dose: 120.0 mg/kg/injection, schedule: Q01DX005 (ip), vehicle: Klucel (hydroxypropylcellulose) (HPC)
[23] = dose: 240.0 mg/kg/injection, schedule: Q01DX005 (ip), vehicle: Klucel (hydroxypropylcellulose) (HPC)

Measured: T/C

CSC(=S)n1nc(-c2cccs2)c(N=Nc2ccc(Cl)cc2)c1C(F)(F)F
inactive: [1] 92 % of control | [2] 100 % of control | [3] 111 % of control

Cc1nc2scc(-c3ccccc3)n2c(=O)c1CN1CCCCC1
inactive: dose: 37.5 mg/kg/injection, schedule: Q04DX002 (ip), vehicle: Klucel (hydroxypropylcellulose) (HPC) 103 % of control | dose: 75.0 mg/kg/injection, schedule: Q04DX002 (ip), vehicle: Klucel (hydroxypropylcellulose) (HPC) 106 % of control | dose: 150.0 mg/kg/injection, schedule: Q04DX002 (ip), vehicle: Klucel (hydroxypropylcellulose) (HPC) 95 % of control

O=C1C(=Nc2ccccc2)Cc2ccccc21
inactive: [4] 100 % of control | [5] 96 % of control | dose: 400.0 mg/kg/injection, schedule: Q04DX003 (ip), vehicle: saline with Tween-80 100 % of control

c1ccc2cc(N=NNc3ccc4ccccc4c3)ccc2c1
inactive: [6] 122 % of control | dose: 50.0 mg/kg/injection, schedule: Q04DX003 (ip), vehicle: saline with Tween-80 90 % of control | [7] 95 % of control | [4] 100 % of control | [5] 109 % of control

COc1ccc(N=Nc2c(-c3ccccc3)nn(C(=S)S)c2-c2ccccc2)cc1
inactive: [8] 93 % of control | [9] 96 % of control | [10] 93 % of control

CC1(C)CCC2(C(=O)O)CCC3(C)C(=CCC4C5(C)CC(O)C(O)C(C)(C(=O)O)C5CCC43C)C2C1 (stereo not given)
inactive: dose: 1.0 mg/kg/injection, schedule: Q01DX005 (ip), vehicle: saline 96 % of control | dose: 2.03 mg/kg/injection, schedule: Q01DX005 (ip), vehicle: saline 94 % of control | dose: 4.06 mg/kg/injection, schedule: Q01DX005 (ip), vehicle: saline 87 % of control | dose: 8.12 mg/kg/injection, schedule: Q01DX005 (ip), vehicle: saline 90 % of control

CCCCCCC(=O)/C=C/c1ccccc1OC(=O)c1ccc(Cl)cc1
inactive: [11] 101 % of control | [6] 88 % of control and 90 % of control | [7] 95 % of control | [12] 94 % of control

COc1ccc(N=NNc2ccc(OC)cc2)cc1
inactive: [13] 104 % of control | [14] 95 % of control | [15] 104 % of control | [16] 108 % of control | [17] 116 % of control

CC(N=[N+]=[N-])n1nnnc1-c1ccccc1 (stereo not given)
inactive: dose: 25.0 mg/kg/injection, schedule: Q01DX001 (ip), vehicle: Klucel (hydroxypropylcellulose) (HPC) 101 % of control | dose: 50.0 mg/kg/injection, schedule: Q01DX001 (ip), vehicle: Klucel (hydroxypropylcellulose) (HPC) 121 % of control | dose: 100.0 mg/kg/injection, schedule: Q01DX001 (ip), vehicle: Klucel (hydroxypropylcellulose) (HPC) 113 % of control and 120 % of control | dose: 200.0 mg/kg/injection, schedule: Q01DX001 (ip), vehicle: Klucel (hydroxypropylcellulose) (HPC) 91 % of control

CCC1(C)C(C#N)C(=O)NC(=O)C1C#N (stereo not given)
inactive: [11] 95 % of control | [6] 95 % of control

COc1ccc(N=C=S)cc1N=C=S
inactive: [14] 95 % of control | [16] 104 % of control | [17] 104 % of control

O=C(O)C1CCC(=O)N1Cc1csc(-c2ccccc2)n1 (stereo not given)
inactive: [1] 103 % of control | [2] 93 % of control | [3] 99 % of control

CSc1nc(=O)[nH]nc1SCc1ccccc1
inactive: [18] 114 % of control and 120 % of control | [19] 101 % of control and 111 % of control | [20] 108 % of control and 120 % of control

COC(=O)C1C(=O)C(C(=O)OC)C2(C)C(C(=O)OC)C(=O)C(C(=O)OC)C12C (stereo not given)
inactive: [21] 103 % of control | [22] 102 % of control | [23] 103 % of control

CC1C2=C(CC(=O)NC2=O)C(=O)N1Cc1ccccc1 (stereo not given)
inactive: [18] 103 % of control | [19] 106 % of control | [20] 97 % of control

C=C(Cl)/C=N/C(=O)NC(O)C(=C)Cl (stereo not given)
inactive: [8] 93 % of control | [9] 96 % of control | [10] 93 % of control

NCC1CC2(Cl)C(Cl)=C(Cl)C1(Cl)C2(Cl)Cl (stereo not given)
inactive: dose: 12.5 mg/kg/injection, schedule: Q01DX005 (ip), vehicle: saline with Tween-80 106 % of control | dose: 25.0 mg/kg/injection, schedule: Q01DX005 (ip), vehicle: saline with Tween-80 107 % of control | [8] 107 % of control and 111 % of control

O=C(O)/C=C\S(=O)(=O)O
inactive: dose: 25.0 mg/kg/injection, schedule: Q04DX002 (ip), vehicle: saline 116 % of control | dose: 50.0 mg/kg/injection, schedule: Q04DX002 (ip), vehicle: saline 106 % of control | dose: 100.0 mg/kg/injection, schedule: Q04DX002 (ip), vehicle: saline 93 % of control

CC(=O)C(C)C(C)=O
inactive: [13] 97 % of control | [15] 93 % of control | [11] 100 % of control | [6] 107 % of control | [7] 108 % of control | [12] 103 % of control | dose: 400.0 mg/kg/injection, schedule: Q01DX009 (ip), vehicle: saline with Tween-80 110 % of control

CCCCCC(=O)Cc1cc(OC)cc(O)c1C(=O)Oc1cc(CCCCC)c(C(=O)O)c(OC)c1
inactive: dose: 0.25 mg/kg/injection, schedule: Q01DX009 (ip), vehicle: saline with Tween-80 101 % of control | dose: 0.5 mg/kg/injection, schedule: Q01DX009 (ip), vehicle: saline with Tween-80 104 % of control | dose: 1.0 mg/kg/injection, schedule: Q01DX009 (ip), vehicle: saline with Tween-80 108 % of control

COC1(OC)C(c2cccs2)C(C#N)(C#N)C1(OC)OC (stereo not given)
inactive: [21] 100 % of control | [22] 105 % of control | [23] 100 % of control

CCOC12NC(=O)N(C)C1(OCC)C(=O)N(C)C(=O)N2C (stereo not given)
inactive: [6] 91 % of control | [7] 92 % of control | [12] 88 % of control

O=C1CC(=O)N(CCc2ccncc2)C(=O)N1CCc1ccncc1
inactive: dose: 50.0 mg/kg/injection, schedule: Q01DX005 (ip), vehicle: saline 106 % of control | dose: 100.0 mg/kg/injection, schedule: Q01DX005 (ip), vehicle: saline 106 % of control

Cc1c(C#N)sc2ccccc12
inactive: dose: 25.0 mg/kg/injection, schedule: Q01DX009 (ip), vehicle: other 96 % of control | dose: 50.0 mg/kg/injection, schedule: Q01DX009 (ip), vehicle: other 105 % of control | dose: 100.0 mg/kg/injection, schedule: Q01DX009 (ip), vehicle: other 89 % of control

CN1COc2c(Cl)cc(Cl)cc2C1
inactive: [11] 95 % of control | [6] 90 % of control | [7] 86 % of control

COC(=O)c1nn(-c2ccccc2)c(C(=O)OC)c1C(=O)OC
inactive: dose: 100.0 mg/kg/injection, schedule: Q01DX001 (ip), vehicle: saline with Tween-80 111 % of control | dose: 200.0 mg/kg/injection, schedule: Q01DX001 (ip), vehicle: saline with Tween-80 112 % of control | dose: 400.0 mg/kg/injection, schedule: Q01DX001 (ip), vehicle: saline with Tween-80 98 % of control

Cc1c2ccncc2c(C)c2c1[nH]c1ccc(F)cc12
inactive: dose: 16.25 mg/kg/injection, schedule: Q04DX002 (ip), vehicle: Klucel (hydroxypropylcellulose) (HPC) 106 % of control | dose: 32.5 mg/kg/injection, schedule: Q04DX002 (ip), vehicle: Klucel (hydroxypropylcellulose) (HPC) 106 % of control

COc1ccc(NC2=CC(=S)NC(C)(C)C2)cc1
inactive: dose: 50.0 mg/kg/injection, schedule: Q01DX009 (ip), vehicle: saline 92 % of control | dose: 100.0 mg/kg/injection, schedule: Q01DX009 (ip), vehicle: saline 104 % of control | dose: 200.0 mg/kg/injection, schedule: Q01DX009 (ip), vehicle: saline 104 % of control

COc1ccc(Cc2cc(C(C)(C)C)cc(C(C)(C)C)c2O)cc1
inactive: dose: 50.0 mg/kg/injection, schedule: Q01DX005 (ip), vehicle: distilled water + alcohol 96 % of control | dose: 100.0 mg/kg/injection, schedule: Q01DX005 (ip), vehicle: distilled water + alcohol 96 % of control | dose: 200.0 mg/kg/injection, schedule: Q01DX005 (ip), vehicle: distilled water + alcohol 95 % of control
